Results filed as inconclusive are left out. Some results are limits rather than exact numbers.

Here are results for 89 compounds from PubChem BioAssay AID720513 (Broad Institute, 2013).

For this assay, the system named is U2OS PGC1a acetylation AlphaLISA, overnight. Put plainly: activators raising PGC1a acetylation in cells, dose response, cell-based, cherry-picked samples, set 6 (AID 720513).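 Further: cells made to overexpress flag tagged PGC1a plus GCN5 acetyltransferase by viral infection.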
`CC(=O)Nc1sc2c(c1-c1nc3ccccc3s1)CN(C(C)C)CC2`: the AC40 is 1.45 µM.
As to `Cc1cc(C)c2c(-n3cccc3)c(C(=O)NNS(=O)(=O)c3ccc(F)cc3)sc2n1`, the AC40 is 5.62 µM.
Then `COc1ccccc1/C=C1\SC(=O)N(CCC(=O)NCCCn2ccnc2)C1=O`, with 2.07 µM.
With `O=C(CCn1nnc2ccccc21)Nc1nnc(Cc2ccccc2)s1`, the AC40 was 4.36 µM.
The same measure for `COc1ccc(N(C(=O)c2snc(C(N)=O)c2N)C(C(=O)NC2CCCCC2)c2ccc(F)cc2)c(OC)c1` (centres undefined): 3.26 µM; for `COc1ccc(Cn2nnnc2C(C(C)C)N(Cc2ccco2)Cc2cccs2)cc1` (centres undefined): 2.6 µM.
Regarding `O=C(Cc1ccc(Cl)cc1)c1c[nH]c(C(=O)NCc2cccnc2)c1`, the AC40 was 3.56 µM.
With `CCOC(=O)CNS(=O)(=O)c1cc(-c2nnc(Nc3ccc4c(c3)OCO4)c3ccccc23)ccc1C`, the AC40 was 1.29 µM.
Consider `O=C(Nc1ccccc1-c1ccccc1)NC1CC2CCCC(C1)N2Cc1ccc(F)cc1` (centres undefined), for which the AC40 is 10.5 µM.
In the case of `C=CCn1c(=NC(=O)c2ccc(S(=O)(=O)N3CCCC3)cc2)sc2cc(NC(C)=O)ccc21`, the AC40 was 12.3 µM.
Then `O=C(NCc1ccco1)c1scc2c1OCCO2`, with 12.3 µM.
For the compound `COc1cccc(-c2ccc(C3[C@@H]4CN(Cc5ccccn5)C[C@H]3N4)cc2)c1` (some centres undefined), the AC40 is 13.5 µM.
Take `O=C(Cc1ccccc1)Nc1cccc(-c2nc3ncccc3o2)c1`: the AC40 is 2.71 µM.
Then `OC[C@H]1O[C@@H](n2cnc3c(NCc4ccco4)ncnc32)[C@H](O)[C@@H]1O`, with 7.4 µM; and `CC1CN(S(=O)(=O)c2ccc(C(=O)NCCCn3ccnc3)cc2)CC(C)O1` (centres undefined), with 0.246 µM; and `COc1ccc(S(=O)(=O)Nc2ccc3c(c2)C(=O)N([C@@H](C)CO)C[C@@H](C)[C@H](CN(C)S(=O)(=O)c2ccc(Cl)cc2)OCCCC[C@H](C)O3)cc1`, with 9.66 µM.
Consider `CCOc1ccccc1CN1CCN(C2CCC2)CC1CCO` (centres undefined), for which the AC40 is 6.23 µM.
Take `CCOC(=O)C1=C[C@@H](C(C)(C)C)N(S(=O)(=O)c2ccc(C)cc2)[C@H]1c1ccccc1`: the AC40 is 3.62 µM.
`CC12CCC(C1)C(C)(C)C2NS(=O)(=O)c1ccc(F)cc1` (centres undefined): the AC40 is 5.98 µM.
In the case of `C[C@@H]1CN([C@@H](C)CO)C(=O)Cc2cc(NC(=O)Cc3ccccc3)ccc2O[C@H]1CN(C)C(=O)Nc1ccccc1`, the AC40 is 0.263 µM.
The same measure for `Cc1ccc(O)c(C(=O)c2cnc3c(c2)CN(CCC(C)C)C(=O)N3)c1`: 10.2 µM; for `COc1cccc(C(=O)c2c[nH]c(C(=O)NCc3cccnc3)c2)c1`: 1.4 µM; for `CCN(CC)CC(=O)N1c2ccccc2CCc2ccc(NC(=O)c3cc(OC)c(OC)c(OC)c3)cc21`: 8.84 µM.
As to `CCn1c(SCC(=O)Nc2ccc(NC(=O)c3ccco3)cc2)nnc1-c1cccs1`, the AC40 was 1.7 µM.
Consider `Cc1ccc(C(=O)c2c[nH]c(C(=O)NCc3cccnc3)c2)cc1`, for which the AC40 was 2.67 µM.
In the case of `c1ccc(-c2c(-c3ccccc3)n(Cc3ccco3)c3ncnc(NCCCn4ccnc4)c23)cc1`, the AC40 is 1.86 µM.
Take `CC1(Cc2ccc(Cl)cc2)C(=O)Nc2c(Cl)ccc(Cl)c21` (centres undefined): the AC40 is 4.52 µM.
Regarding `COc1ccc(C#Cc2cnc3c(c2)C(=O)N([C@H](C)CO)C[C@H](C)[C@H](CN(C)S(=O)(=O)c2cccc(F)c2)O3)cc1OC`, the AC40 was 18.8 µM.
With `CC(C)CCNc1nc(N2CCCC2)c2c(c1C#N)CCN(C)C2`, the AC40 was 3.92 µM.
As for `O=S(=O)(NC12CC3CC(CC(C3)C1)C2)c1ccc(F)cc1`, the AC40 was 4.02 µM.
The same measure for `CC(=O)c1cccc(N(C(=O)Cn2nnc3ccccc32)C(C(=O)NCc2ccccc2)c2ccccn2)c1` (centres undefined): 10.5 µM.
Consider `CCCCn1c(CN(Cc2ccccc2)Cc2ccccc2)nc2c1c(=O)n(C)c(=O)n2C`, for which the AC40 is 3.88 µM.
`COc1cc(CN2[C@@H]3CNC[C@H]2C3c2ccc(-c3ccccc3)cc2)cc(OC)c1` (some centres undefined): the AC40 was 18.3 µM.
As for `CCSc1ccc(NC(=O)c2cccnc2)cc1`, the AC40 was 1.65 µM.
Regarding `Nc1c(C(=O)c2ccccc2)sc2nsc(SCCN3CCCC3)c12`, the AC40 is 9.72 µM.
As to `Cc1ccc(-c2nnc(Nc3ccc4c(c3)OCO4)c3ccccc23)cc1S(=O)(=O)NCCO`, the AC40 is 2.08 µM.
The same measure for `O=C(c1ccccc1)c1nn(-c2ccc(Cl)cc2)c(=O)cc1C(F)(F)F`: 0.451 µM; for `O=C(NCc1ccccc1)c1ccc(NC(=O)C2CC2)cc1`: 11.1 µM.
For the compound `Cc1noc(C)c1S(=O)(=O)Nc1ccc2c(c1)C(=O)N([C@@H](C)CO)C[C@@H](C)[C@@H](CN(C)Cc1ccc3c(c1)OCO3)OCCCC[C@@H](C)O2`, the AC40 was 3.78 µM.
With `COC(=O)[C@@]1(C)[C@H]2C(=O)N(Cc3ccccc3)C(=O)[C@H]2[C@H]2CN=C(SCC3CC3)N21`, the AC40 is 16.8 µM.
Then `CCOC(=S)SCC(=O)Nc1nc(C)c(C)s1`, with 3.58 µM; and `O=C(Nc1ccc(OCC(=O)N2CCC(Cc3ccccc3)CC2)cc1)c1ccco1`, with 3.17 µM.
As to `C[C@@H]1CN([C@H](C)CO)C(=O)c2cccc(NC(=O)c3ccc(-c4nccs4)cc3)c2O[C@@H]1CN(C)Cc1ccc(C(=O)Nc2ccccc2N)cc1`, the AC40 was less than 0.16 µM.
Then `CCOC(=O)c1c(NC(=O)c2ccoc2C)sc2c1CCC2`, with 13.9 µM; and `OCCNc1nc(N2CCCCC2)nc2ccccc12`, with 18.1 µM.
As to `CC(C)[C@H](C)NC(=O)N(C)C[C@H]1OCc2ccccc2-c2c(n(C)c3ccccc23)C(=O)N([C@H](C)CO)C[C@H]1C`, the AC40 is 5.85 µM.
`O=S1(=O)CCOC[C@H](CC2CCCCC2)N1Cc1ccc(F)cc1`: the AC40 was 9.18 µM.
The same measure for `O=C(NCCC1CCCCN1S(=O)(=O)c1cccs1)C(=O)Nc1ccc(F)cc1F` (centres undefined): 9.6 µM; for `O=C(NCc1cccs1)c1ccc(Cl)c(S(=O)(=O)N2CCCC2)c1`: 3.54 µM; for `CC(=O)Nc1nonc1-c1nc2ccccc2n1Cc1ccccc1`: 4.88 µM.
Then `COc1ccc(-c2c(-c3cc(OC)cc(OC)c3)n(C)c3ccc(-c4cnc(N)nc4)cc23)cc1`, with 0.974 µM; and `COc1ccc(-c2cc(-c3ccccc3O)[nH]n2)cc1OC`, with 7.33 µM; and `Cc1ccc2[nH]c(=O)c(CN(Cc3ccc4c(c3)OCO4)Cc3nnnn3C3CCCC3)cc2c1`, with 7.98 µM.
Take `CCC(C)(C)n1nnnc1C(c1ccccc1OC)N1CCSCC1` (centres undefined): the AC40 is 1.45 µM.
Then `Cc1ccc(S(=O)(=O)N2CCN(S(=O)(=O)c3ccc(C)cc3)C2c2ccccc2)cc1`, with 2.7 µM.
Consider `O=C1Nc2cc(S(=O)(=O)N3CCCC3)ccc2N2CCCC12` (centres undefined), for which the AC40 is 16.6 µM.
`CC(=O)c1ccc(N2CCN(c3ccc(S(=O)(=O)NCCCN(C)C)cc3[N+](=O)[O-])CC2)cc1`: the AC40 is 1.22 µM.
The same measure for `Cc1csc(NC(=O)CSc2nsc(SCC(=O)Nc3nc(C)cs3)c2C#N)n1`: 4.36 µM; for `CCN(CC)S(=O)(=O)c1c(Br)cc(C)cc1Br`: 1.29 µM; for `O=C(NC1CCCCC1)c1cccnc1C(=O)O`: 3.2 µM.
For the compound `Cc1cccc2sc(N3CCN(C(=O)c4cccs4)CC3)nc12`, the AC40 was 16.7 µM.
Consider `COc1ccc2c(c1)CCc1c(C(=O)NCCCn3ccnc3)noc1-2`, for which the AC40 was 18.9 µM.
With `CC1CCCN(Cc2c(O)ccc3c(=O)c(-c4nc5ccccc5s4)c(N)oc23)C1` (centres undefined), the AC40 was 5.03 µM.
Regarding `O=C(NCCC1=CCCCC1)c1coc(=O)c(Br)c1`, the AC40 is 1.37 µM.
Regarding `O=C(COCc1cc(-c2ccc3c(c2)OCO3)on1)Nc1cccnc1`, the AC40 is 0.458 µM.
Then `O=C(c1ccccc1Nc1ccc(SC(F)F)cc1)N1CCCCCC1`, with 10.3 µM; and `Cc1nc(N2CCN(S(=O)(=O)c3ccc(F)cc3)CC2)c2c(-c3cccs3)csc2n1`, with 3.27 µM; and `CCOCCn1c(CN(Cc2ccccc2)Cc2ccccc2)nc2c1c(=O)[nH]c(=O)n2C`, with 5.12 µM.
Then `Cc1ccc(OC(=O)N(C)C[C@H]2OCc3ccccc3-c3c(n(C)c4ccccc34)C(=O)N([C@H](C)CO)C[C@H]2C)cc1`, with 7.6 µM; and `C=C[C@H]1C(C(=O)OCC)=CC[C@@H](c2ccccc2)N1S(=O)(=O)c1ccc(C)cc1`, with 0.249 µM; and `CCOC(=O)CC(S(=O)(=O)c1ccccc1)S(=O)(=O)c1ccccc1`, with 4.09 µM.
Then `C[C@H](CO)N1C[C@H](C)[C@@H](CN(C)Cc2ccc3c(c2)OCO3)Oc2cc(Br)ccc2S1(=O)=O`, with 18.6 µM; and `O=C1OC(Oc2ccc(Br)cc2)(c2ccccc2)c2ccccc21` (centres undefined), with 1.46 µM.
With `COc1ccc(N(C(=O)c2snc(C(N)=O)c2N)C(C(=O)NC2CCCCC2)c2ccc(C)o2)cc1` (centres undefined), the AC40 was 5.68 µM.
`CC(C)(C)C(=O)Nc1sc2c(c1-c1nc3ccccc3[nH]1)CCCC2`: the AC40 is 18.4 µM.
In the case of `CC(=O)CCS(=O)(=O)c1ccc(C)c(C)c1`, the AC40 was 6.64 µM.
For `COc1cc2nc(SCc3c(C)noc3C)n(CCC3=CCCCC3)c(=O)c2cc1OC`, the AC40 was 2.51 µM.
The same measure for `Cc1ccc(S(=O)(=O)N2C[C@@H]3N[C@H](C2)[C@@H]3c2ccc(-c3cccc(C)c3)cc2)cc1`: 5.18 µM.
For the compound `CCN1CCN(C(=O)c2ccc3c(=O)n(CCC4=CCCCC4)c(=O)[nH]c3c2)CC1`, the AC40 was 1.94 µM.
For the compound `COc1cc(CN2CCCC(CO)(Cc3cccc(Cl)c3)C2)cc2c1OCO2` (centres undefined), the AC40 is 8.62 µM.
Then `CO[C@@H](C(=O)N(C)C[C@H]1OCc2ccccc2-c2c(n(C)c3ccccc23)C(=O)N([C@H](C)CO)C[C@H]1C)c1ccccc1`, with 8.25 µM; and `Cc1ccc(S(=O)(=O)NC(CC(C)C)C(=O)N2CCCCCCC2)cc1` (centres undefined), with 1.59 µM.
In the case of `CC(=O)c1ccc(OCC(=O)OCC(=O)Nc2sccc2C(N)=O)cc1`, the AC40 is 6.46 µM.
The same measure for `CCOC(=O)CCc1c(C)c2ccc(O)cc2oc1=O`: 0.371 µM.
In the case of `CC(=O)c1cccc(N(C(=O)c2cnccn2)C(C(=O)NCc2ccccc2)c2ccco2)c1` (centres undefined), the AC40 is 1.39 µM.
As for `Clc1ccc(-c2nnc(-c3ccccc3)nc2N2CCSCC2)cc1`, the AC40 was 17.7 µM.
Turning to `Cc1ccc(NC(=O)c2sccc2SCc2cccc(C(F)(F)F)c2)cc1`, the AC40 was 5.13 µM.
For the compound `O=C(CN1CCC(n2nnc3cc(F)ccc32)CC1)Nc1ccc2c(c1)CCC2`, the AC40 was 2.71 µM.
`COc1ccccc1CN1C[C@@H]2N[C@H](C1)C2c1ccc(-c2ccccc2OC)cc1` (some centres undefined): the AC40 is 20.8 µM.
